Assay results published in patent publication US10130636B2, “High dosage strength tablets of rucaparib” (Clovis Oncology, Inc., priority 2014, dated 2018).
Like-named read-outs stand apart in the source and are kept apart here.

Experiments:
[1] = CTC profiles (compressibility, tabletability, compactability) of rucaparib salt intra granular formulations; assay type: physicochemical; settings: for formation of compacts: pure API without excipients, maleate also at 90% loading, 100 mg compacts
Excerpt: The most relevant and broadly accepted approach to assessing compression evaluation of different formulations (and different API salts) is by measuring the interrelationships of compression stress, solid fraction, and tensile strength using a compaction simulator. These parameters are related to each other in a set of relationships referred to as compressibility, tabletability, and compactability profiles (i.e., CTC Profiles) (Tye, Sun, Amidon, J. Pharm. Sci, 94: 465-472, (2005)). Focus was on the intra granular blend rather than the final blend because nearly all of the lead formulation is processed through dry granulation; only a small portion is extra granular. Additionally, the extra granular lubrication step at small scale is not representative of downstream pilot or commercial processing and risks masking intrinsic compressibility properties. For the provided lot of each salt form, formulations were evaluated at 100%, 90%, 75%, and 60% of the final tablet formulation (this correlates to 100%, 90.68%, 75.57%, and 60.45% intra granular components). CTC profiles for each API and formulation were determined by compressing (Texture Technologies model TA.XT Plus Texture Analyzer), in triplicate, 1⁄4'' round flat-faced 100 mg compacts using a linear sawtooth strain profile at 5 mm/sec velocity to four pre-programmed peak forces encompassing roller compaction and tableting compression stress ranges (e.g., up to 240 MPa). The compacts were then evaluated for physical dimensions, weight, and hardness. […] The maximum acceptable compression stress considered within normal ranges of a commercial rotary tablet press is approximately 250 MPa. Similarly, a typical target tensile strength for tablets is 2 MPa; such tablets generally have low friability, and are suitable for downstream handling and film coating. Thus, if a given formulation can be compressed to a tensile strength of 2 MPa at a compression stress of less than 250 MPa, it is considered to have acceptable compressibility.

[2] = Hygroscopicity of rucaparib salts; assay type: physicochemical; settings: compared to other salts of rucaparib
[3] = as stated in U.S. Pat. No. 8,754,072; compared to other salt forms; cited from earlier work
[4] = Drug Load 60%, Compression Stress 47.9 MPa
[5] = Drug Load 60%, Compression Stress 80.3-80.4 MPa
[6] = Drug Load 60%, Compression Stress 176.0-177.0 MPa
[7] = Drug Load 60%, Compression Stress 239.5-240.4 MPa
[8] = Drug Load 75%, Compression Stress 48.3-48.5 MPa
[9] = Drug Load 75%, Compression Stress 80.5-80.8 MPa
[10] = Drug Load 75%, Compression Stress 176.8-177.8 MPa
[11] = Drug Load 75%, Compression Stress 240.1-240.7 MPa

Tensile Strength [1, 4] | Tensile Strength [1, 5] | Tensile Strength [1, 6] | Tensile Strength [1, 7] | Tensile Strength [1, 8] | Tensile Strength [1, 9] | Tensile Strength [1, 10] | Tensile Strength [1, 11] | formation of compacts [1] | hygroscopicity [2] | tabletability, fold lower than the camsylate salt ([1]; 60 and 75% API loading) | drug loading needed to obtain tablets with sufficient strength ([1]; estimated, target >70%) | Compound | hygroscopicity [3]
0.6 MPa | 1.3 MPa | 2.6 MPa | 3.1 MPa | 0.6 MPa | 1.1 MPa | 2.3 MPa | 2.8 MPa | formed good compacts | low hygroscopicity | – | – | CNCc1ccc(-c2[nH]c3cc(F)cc4c3c2CCNC4=O)cc1 [Camsylate, Rucaparib Camsylate] | less hygroscopic
0.3 MPa | 0.6 MPa | 1.2 MPa | 1.4 MPa | 0.2 MPa | 0.4 MPa | 0.8 MPa | 0.8 MPa | not able to be formed | – | 2-2.5 × | < 50% | Rucaparib Maleate | less hygroscopic
